# Assay results taken from patent US9695155B2, “Herbicidal substituted pyrimidinyloxy benzene compounds” (E. I. DU PONT DE NEMOURS AND COMPANY, priority 2013, dated 2017).
# Columns and labels:
# pigweed [1] = assay: Test A preemergence; assay type: in vivo, Amaranthus retroflexus; conditions: for Plant response rating, Pigweed: 125 g ai/ha; for Pigweed plant response rating: 500 g ai/ha
# Outline: (§1)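 Greenhouse pot test, loam/sand soil. Formulation: non-phytotoxic solvent mix plus surfactant. Pre: directed spray onto soil after sowing. Post: plants at 1–2 leaf, 2–10 cm. Rated visually vs untreated controls at ~10 d, 0 (no effect) to 100 (complete control).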
# giant foxtail [2] = assay: Test A postemergence; assay type: in vivo, Setaria faberii; conditions: 0 to 100 scale where 0 is no effect and 100 is complete control
# Outline: as §1
# pigweed [3] = assay: Test A postemergence; assay type: in vivo, Amaranthus retroflexus; conditions: 0 to 100 scale where 0 is no effect and 100 is complete control
# Outline: as §1
# blackgrass = assay: Test C preemergence; assay type: in vivo, Alopecurus myosuroides; conditions: for Blackgrass plant response rating: preemergence; for Plant response rating, Blackgrass: Preemergence, 31 g ai/ha, scale 0 to 100, 0 no effect, 100 complete control
# Outline: (§2)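 Greenhouse herbicide screen. Pre: seeded loam/sand, sprayed at planting. Post: 1–4 leaf plants (2–18 cm) in peat-based mix. Formulation: solvent mixture + surfactant, non-phytotoxic. Readout: visual % control vs untreated, 13–15 d; dash = not tested.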
# giant foxtail [4] = assay: Test C preemergence; assay type: in vivo, Setaria faberii; conditions: for Foxtail, Giant plant response rating: preemergence; for Plant response rating, Foxtail, Giant: Preemergence, 31 g ai/ha, scale 0 to 100, 0 no effect, 100 complete control
# Outline: as §2
# johnsongrass [5] = assay: Test C preemergence; assay type: in vivo, Sorghum halepense; conditions: for Johnsongrass plant response rating: preemergence
# Outline: as §2
# ragweed = assay: Test C preemergence; assay type: in vivo, Ambrosia elatior; conditions: for Ragweed plant response rating: preemergence
# Outline: as §2
# corn = assay: Test C postemergence; assay type: in vivo, Zea mays
# Outline: as §2
# large (Lg) crabgrass = assay: Test C postemergence; assay type: in vivo, Digitaria sanguinalis
# Outline: as §2
# johnsongrass [6] = assay: Test C postemergence; assay type: in vivo, Sorghum halepense; conditions: for Plant response rating, Johnsongrass: Postemergence
# Outline: as §2
# oilseed rape = assay: Test C postemergence; assay type: in vivo, Brassica napus; conditions: for Plant response rating, Oilseed Rape: scale 0 to 100 (0 no effect, 100 complete control)
# Outline: as §2
# waterhemp = assay: Test C postemergence; assay type: in vivo, Amaranthus rudis; conditions: for Plant response rating, Waterhemp: scale 0 to 100 (0 no effect, 100 complete control)
# Outline: as §2
# velvetleaf = assay: Test C postemergence; assay type: in vivo, Abutilon theophrasti; conditions: for Plant response rating, Velvetleaf: scale 0 to 100 (0 no effect, 100 complete control)
# Outline: as §2
# [7] = 0 to 100 scale where 0 is no effect and 100 is complete control
# [8] = 16 g ai/ha, scale 0 to 100 (0 no effect, 100 complete control)
# [9] = 62 g ai/ha, scale 0 (no effect) to 100 (complete control)
# [10] = 125 g ai/ha, scale 0 (no effect) to 100 (complete control)
# [11] = Preemergence, 31 g ai/ha, scale 0 to 100, 0 no effect, 100 complete control
# [12] = 16 g ai/ha, postemergence, visual rating, scale 0 to 100 (0 no effect, 100 complete control), 13 to 15 days
# [13] = Postemergence, 31 g ai/ha, scale 0 to 100 (0 no effect, 100 complete control), 13 to 15 days
# [14] = Postemergence, 62 g ai/ha, scale 0 to 100 (0 no effect, 100 complete control)
# [15] = 62 g ai/ha, scale 0 to 100 (0 no effect, 100 complete control)
# [16] = Postemergence, 31 g ai/ha, 13 to 15 days
# [17] = 16 g ai/ha, postemergence, 0 is no effect, 100 is complete control
# [18] = 125 g ai/ha, postemergence, visual rating, scale 0 to 100 (0 no effect, 100 complete control)
# [19] = 125 g ai/ha, postemergence, visual rating
compound,measurement,setting,value
FCc1cccc(Oc2ncc(Cl)cn2)c1-n1cc(Br)cn1 [Compound 83],"Plant response rating, Pigweed",pigweed [1]; [7],100
same,Pigweed plant response rating,"pigweed [1]; 0 to 100 scale, 0 no effect, 100 complete control, approx. 10 days",100
same,"Plant response rating, Foxtail, Giant",giant foxtail [2]; 125 g ai/ha,90
same,"Plant response rating, Foxtail, Giant",giant foxtail [2]; 500 g ai/ha,100
same,"Plant response rating, Pigweed",pigweed [3]; 125 g ai/ha,100
same,"Plant response rating, Pigweed",pigweed [3]; 500 g ai/ha,100
same,Blackgrass plant response rating,blackgrass; [8],0
same,Blackgrass plant response rating,blackgrass; [9],90
same,Blackgrass plant response rating,blackgrass; [10],85
same,"Plant response rating, Blackgrass",blackgrass,5
same,"Foxtail, Giant plant response rating",giant foxtail [4]; [8],5
same,"Foxtail, Giant plant response rating",giant foxtail [4]; [9],100
same,"Foxtail, Giant plant response rating",giant foxtail [4]; [10],100
same,"Plant response rating, Foxtail, Giant",giant foxtail [4],75
same,Johnsongrass plant response rating,johnsongrass [5]; [8],0
same,Johnsongrass plant response rating,johnsongrass [5]; [9],50
same,Johnsongrass plant response rating,johnsongrass [5]; [10],85
same,"Plant response rating, Johnsongrass",johnsongrass [5]; [11],0
same,Ragweed plant response rating,ragweed; [8],0
same,Ragweed plant response rating,ragweed; [9],40
same,Ragweed plant response rating,ragweed; [10],45
same,"Plant response rating, Ragweed",ragweed; [11],35
same,Corn plant response rating,corn; [12],0
same,"Plant response rating (0 to 100), Corn","corn; 125 g ai/ha, postemergence",10
same,"Plant response rating, Corn",corn; [13],5
same,"Plant response rating, Corn",corn; [14],5
same,"Crabgrass, Large plant response rating",large (Lg) crabgrass; [12],5
same,"Plant response rating (0 to 100), Crabgrass, Large","large (Lg) crabgrass; 125 g ai/ha, postemergence",10
same,"Plant response rating, Crabgrass, Large",large (Lg) crabgrass; [13],5
same,"Plant response rating, Crabgrass, Large",large (Lg) crabgrass; [14],10
same,Johnsongrass plant response rating,johnsongrass [6]; [12],0
same,"Plant response rating (0 to 100), Johnsongrass","johnsongrass [6]; 125 g ai/ha, postemergence",10
same,"Plant response rating, Johnsongrass","johnsongrass [6]; 31 g ai/ha, scale 0 to 100 (0 no effect, 100 complete control), 13 to 15 days",0
same,"Plant response rating, Johnsongrass",johnsongrass [6]; [15],10
same,"Plant response rating (0 to 100), Oilseed Rape","oilseed rape; 125 g ai/ha, postemergence",80
same,"Plant response rating, Oilseed Rape",oilseed rape; [16],50
same,"Plant response rating, Oilseed Rape","oilseed rape; Postemergence, 62 g ai/ha",55
same,"Plant response rating (0 to 100), Waterhemp","waterhemp; 125 g ai/ha, postemergence",90
same,"Plant response rating, Waterhemp",waterhemp; [16],50
same,"Plant response rating, Waterhemp","waterhemp; Postemergence, 62 g ai/ha",70
same,"Plant response rating (0 to 100), Velvetleaf","velvetleaf; 125 g ai/ha, postemergence",65
same,"Plant response rating, Velvetleaf",velvetleaf; [16],55
same,"Plant response rating, Velvetleaf","velvetleaf; Postemergence, 62 g ai/ha",50
Cc1cnc(Oc2cccc(C#N)c2-n2cc(I)cn2)nc1 [Compound 136],"Plant response rating, Pigweed",pigweed [1]; [7],90
same,Pigweed plant response rating,pigweed [1]; [7],100
same,"Foxtail, Giant plant response rating",giant foxtail [2]; 125 g ai/ha,30
same,"Plant response rating, Foxtail, Giant",giant foxtail [2]; 500 g ai/ha,90
same,Pigweed plant response rating,pigweed [3]; 125 g ai/ha,80
same,"Plant response rating, Pigweed",pigweed [3]; 500 g ai/ha,100
same,Blackgrass plant response rating,blackgrass; [8],0
same,Blackgrass plant response rating,blackgrass; [9],75
same,Blackgrass plant response rating,blackgrass; [10],80
same,"Plant response rating, Blackgrass",blackgrass,0
same,"Foxtail, Giant plant response rating",giant foxtail [4]; [8],0
same,"Foxtail, Giant plant response rating",giant foxtail [4]; [9],80
same,"Foxtail, Giant plant response rating",giant foxtail [4]; [10],100
same,"Plant response rating, Foxtail, Giant",giant foxtail [4],5
same,Johnsongrass plant response rating,johnsongrass [5]; [8],0
same,Johnsongrass plant response rating,johnsongrass [5]; [9],20
same,Johnsongrass plant response rating,johnsongrass [5]; [10],60
same,Ragweed plant response rating,ragweed; [8],0
same,Ragweed plant response rating,ragweed; [9],20
same,Ragweed plant response rating,ragweed; [10],70
same,"Plant response rating (0 to 100), Corn",corn; [17],0
same,"Plant response rating, Corn",corn; [18],5
same,"Plant response rating, Corn",corn; [14],0
same,"Plant response rating (0 to 100), Crabgrass, Large",large (Lg) crabgrass; [17],5
same,"Plant response rating, Crabgrass, Large",large (Lg) crabgrass; [18],15
same,"Plant response rating, Crabgrass, Large",large (Lg) crabgrass; [14],5
same,"Plant response rating (0 to 100), Johnsongrass",johnsongrass [6]; [17],0
same,"Plant response rating, Johnsongrass",johnsongrass [6]; [15],0
same,"Plant response rating (0 to 100), Oilseed Rape",oilseed rape; [17],0
same,"Plant response rating, Oilseed Rape",oilseed rape; [19],5
same,"Plant response rating, Oilseed Rape","oilseed rape; Postemergence, 62 g ai/ha",5
same,"Plant response rating (0 to 100), Waterhemp",waterhemp; [17],40
same,"Plant response rating, Waterhemp",waterhemp; [19],30
same,"Plant response rating, Waterhemp","waterhemp; Postemergence, 62 g ai/ha",35
same,"Plant response rating (0 to 100), Velvetleaf",velvetleaf; [17],10
same,"Plant response rating, Velvetleaf",velvetleaf; [19],25
same,"Plant response rating, Velvetleaf","velvetleaf; Postemergence, 62 g ai/ha",10
